What follows are molecules tested against GLP-1 Receptor (Homo sapiens, UniProt P43220) (assay: GLP-1R agonist cAMP stimulation assay). Details: not given.
Type: cell-based
Experimental: Activation of GLP-1 receptor is known to stimulate cyclic AMP (cAMP) production in cells which indicates primary coupling to the Gαs subunit of the G protein heterotrimeric complex.
To optimize functional activity directed toward Gαs coupling, a HEK293/CRE-Luc cell line developed by HDB stably expressing the GLP-1 Receptor was used. 200× concentration of compound working solutions were prepared (Agilent Technologies Bravo) with ½ log serial dilution in 384-well Echo LDV plate (Labcyte, Cat #LP-0200). 50 nL/well 200× concentration of compound working solutions were moved to 384-well white low volume plate (Greiner, Cat #784075) using Labcyte ECHO550. 1×10^5 cells/mL HEK293/GLP1R/CRE-LUC(HD Biosciences) cell suspensions prepared with assay buffer[DPBS containing 0.5 mM IBMX(Sigma, Cat #15879) and 0.1% BSA (GENVIEW, Cat #FA016-100 g)], 10 uL cell suspensions were added to each well of previous generated assay plate which already contains 50 nl compound at 200×concentration using ThermoFisher Multidrop Combi (1000 cells/well). Seal the plate and incubate at 37° C. with 5% CO2 for 30 min.
After incubation the cAMP assay signal was generated using cAMP dynamic 2 Kit (Cisbio). 5 μL cAMP-d2 working solution was added to each well, followed with 5 μL Anti-cAMP antibody-cryptate working solution added to each well using ThermoFisher Multidrop Combi. Incubate at room temperature for 1 hour protected from light. Read the fluorescence at 665 and 615 nm with Reader PerkinElmer EnVision.
% Activity=100%×(mean RLU of test sample−mean RLU of vehicle control)/(mean RLU of MAX control−mean RLU of vehicle control))

Sequence of GLP-1 Receptor (P43220 24-463, species assumed): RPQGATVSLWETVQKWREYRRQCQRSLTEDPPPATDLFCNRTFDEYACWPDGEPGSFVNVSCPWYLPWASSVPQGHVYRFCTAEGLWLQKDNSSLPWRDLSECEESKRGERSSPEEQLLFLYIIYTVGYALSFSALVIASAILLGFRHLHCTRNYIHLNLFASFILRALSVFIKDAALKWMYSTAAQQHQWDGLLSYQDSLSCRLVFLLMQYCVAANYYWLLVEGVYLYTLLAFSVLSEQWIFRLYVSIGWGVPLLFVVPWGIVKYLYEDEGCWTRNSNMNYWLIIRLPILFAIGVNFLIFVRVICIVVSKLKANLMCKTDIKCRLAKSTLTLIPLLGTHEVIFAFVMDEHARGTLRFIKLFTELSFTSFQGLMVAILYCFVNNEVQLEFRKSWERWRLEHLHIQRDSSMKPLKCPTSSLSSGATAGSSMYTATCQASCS

| EC50 [nM] | SMILES |
| --- | --- |
| 0.22 | FC(F)(F)c1nnc(-c2ccc3c(c2)nc(CN2CCC(Oc4cccc(Cc5ccc(Cl)cc5)n4)CC2)n3C[C@@H]2CCO2)[nH]1 [Compound 136a, 2-{[4-({6-[(4-chlorophenyl)methyl]pyridin-2-yl}oxy)piperidin-1-yl]methyl}-1-{[(2S)-oxetan-2-yl]methyl}-5-[5-(trifluoromethyl)-4H-1,2,4-triazol-3-yl]-1H-1,3-benzodiazole] |
| 0.098 | FC(F)(F)c1nnc(-c2ccc3c(c2)nc(CN2CCC(Oc4ccnc(Cc5ccc(Cl)cc5)n4)CC2)n3C[C@@H]2CCO2)[nH]1 [Compound 106a, 2-{[4-({2-[(4-chlorophenyl)methyl]pyrimidin-4-yl}oxy)piperidin-1-yl]methyl}-1-{[(2S)-oxetan-2-yl]methyl}-5-[5-(trifluoromethyl)-4H-1,2,4-triazol-3-yl]-1H-1,3-benzodiazole] |
| 0.32 | Cc1n[nH]c(-c2ccc3c(c2)nc(CN2CCC(Oc4ccnc(Cc5ccc(Cl)cc5)n4)CC2)n3C[C@@H]2CCO2)n1 [Compound 126a, 2-{[4-({2-[(4-chlorophenyl)methyl]pyrimidin-4-yl}oxy)piperidin-1-yl]methyl}-5-(3-methyl-1H-1,2,4-triazol-5-yl)-1-{[(2S)-oxetan-2-yl]methyl}-1H-1,3-benzodiazole] |

Same assay, conditions: HEK293/GLP1R/CRE-LUC cells, cAMP dynamic 2 Kit (Cisbio), 30 min incubation at 37° C.; read-out: EC50

| EC50 [nM] | SMILES |
| --- | --- |
| 16 | O=C(O)c1ccc2c(c1)nc(CN1CCC(Oc3cccc(Cc4ccc(Cl)cc4F)n3)CC1)n2C[C@@H]1CCO1 [Compound 188a, 2-{[4-({6-[(4-chloro-2-fluorophenyl)methyl]pyridin-2-yl}oxy)piperidin-1-yl]methyl}-1-{[(2S)-oxetan-2-yl]methyl}-1H-1,3-benzodiazole-5-carboxylic acid] |
| 0.35 | Fc1cc(Cl)ccc1Cc1ccc(F)c(OC2CCN(Cc3nc4cc(-c5nnc(C(F)(F)F)[nH]5)ncc4n3C[C@@H]3CCO3)CC2)n1 [Compound 164a, 6-[(4-chloro-2-fluorophenyl)methyl]-3-fluoro-2-({1-[(3-{[(2S)-oxetan-2-yl]methyl}-6-[5-(trifluoromethyl)-4H-1,2,4-triazol-3-yl]-3H-imidazo[4,5-c]pyridin-2-yl)methyl]piperidin-4-yl}oxy)pyridine] |
| 0.048 | Fc1cc(Cl)ccc1Cc1nccc(OC2CCN(Cc3nc4cc(-c5nnc(C(F)(F)F)[nH]5)cnc4n3C[C@@H]3CCO3)CC2)n1 [Compound 142a, 2-[(4-chloro-2-fluorophenyl)methyl]-4-({1-[(3-{[(2S)-oxetan-2-yl]methyl}-6-[5-(trifluoromethyl)-4H-1,2,4-triazol-3-yl]-3H-imidazo[4,5-b]pyridin-2-yl)methyl]piperidin-4-yl}oxy)pyrimidine] |
| 0.65 | Fc1cc(Cl)ccc1Cc1ncc(F)c(OC2CCN(Cc3nc4cc(-c5nnc(C(F)(F)F)[nH]5)nnc4n3C[C@@H]3CCO3)CC2)n1 [Compound 180a, 2-[(4-chloro-2-fluorophenyl)methyl]-5-fluoro-4-({1-[(7-{[(2S)-oxetan-2-yl]methyl}-3-[5-(trifluoromethyl)-4H-1,2,4-triazol-3-yl]-7H-imidazo[4,5-c]pyridazin-6-yl)methyl]piperidin-4-yl}oxy)pyrimidine] |
| 1.1 | N#CC1(Cn2c(CN3CCC(Oc4ccnc(Cc5ccc(Cl)cc5)n4)CC3)nc3cc(-c4nnc(C(F)(F)F)[nH]4)ccc32)CC1 [Compound 157, 1-[(2-{[4-({2-[(4-chlorophenyl)methyl]pyrimidin-4-yl}oxy)piperidin-1-yl]methyl}-5-[5-(trifluoromethyl)-4H-1,2,4-triazol-3-yl]-1H-1,3-benzodiazol-1-yl)methyl]cyclopropane-1-carbonitrile] |
| 0.17 | Fc1cc(Cl)ccc1Cc1ncc(F)c(OC2CCN(Cc3nc4cc(-c5nnn[nH]5)ncc4n3C[C@@H]3CCO3)CC2)n1 [Compound 175a, 2-[(4-chloro-2-fluorophenyl)methyl]-5-fluoro-4-({1-[(3-{[(2S)-oxetan-2-yl]methyl}-6-(1H-1,2,3,4-tetrazol-5-yl)-3H-imidazo[4,5-c]pyridin-2-yl)methyl]piperidin-4-yl}oxy)pyrimidine] |
| 0.056 | Fc1cnc(Cc2ccc(Cl)cc2)nc1OC1CCN(Cc2nc3cc(-c4nnc(C(F)(F)F)[nH]4)ncc3n2C[C@@H]2CCO2)CC1 [Compound 149a, 2-[(4-chlorophenyl)methyl]-5-fluoro-4-({1-[(3-{[(2S)-oxetan-2-yl]methyl}-6-[5-(trifluoromethyl)-4H-1,2,4-triazol-3-yl]-3H-imidazo[4,5-c]pyridin-2-yl)methyl]piperidin-4-yl}oxy)pyrimidine] |
| 0.082 | O=c1[nH]c(-c2cc3nc(CN4CCC(Oc5ccnc(Cc6ccc(Cl)cc6)n5)CC4)n(C[C@@H]4CCO4)c3cn2)no1 [Compound 145a, 3-(2-{[4-({2-[(4-chlorophenyl)methyl]pyrimidin-4-yl}oxy)piperidin-1-yl]methyl}-3-{[(2S)-oxetan-2-yl]methyl}-3H-imidazo[4,5-c]pyridin-6-yl)-4,5-dihydro-1,2,4-oxadiazol-5-one] |
| 0.17 | O=c1[nH]c(-c2cc3nc(CN4CCC(Oc5nc(Cc6ccc(Cl)cc6F)ncc5F)CC4)n(C[C@@H]4CCO4)c3cn2)no1 [Compound 171a, 3-(2-{[4-({2-[(4-chloro-2-fluorophenyl)methyl]-5-fluoropyrimidin-4-yl}oxy)piperidin-1-yl]methyl}-3-{[(2S)-oxetan-2-yl]methyl}-3H-imidazo[4,5-c]pyridin-6-yl)-4,5-dihydro-1,2,4-oxadiazol-5-one] |
| 0.053 | O=C(O)c1ccc2c(c1)nc(CN1CCC(Oc3ccnc(Cc4ccc(Cl)cc4)n3)CC1)n2C[C@@H]1CCO1 [Compound 134a, 2-{[4-({2-[(4-chlorophenyl)methyl]pyrimidin-4-yl}oxy)piperidin-1-yl]methyl}-1-{[(2S)-oxetan-2-yl]methyl}-1H-1,3-benzodiazole-5-carboxylic acid] |
| 4.4 | FC(F)(F)c1cnn(Cc2cccc(OC3CCN(Cc4nc5cc(-c6nnc(C(F)(F)F)[nH]6)ncc5n4C[C@@H]4CCO4)CC3)n2)c1 [Compound 186a, 2-({1-[(3-{[(2S)-oxetan-2-yl]methyl}-6-[5-(trifluoromethyl)-4H-1,2,4-triazol-3-yl]-3H-imidazo[4,5-c]pyridin-2-yl)methyl]piperidin-4-yl}oxy)-6-{[4-(trifluoromethyl)-1H-pyrazol-1-yl]methyl}pyridine] |
| 0.49 | N#CC1(Cn2c(CN3CCC(Oc4cccc(Cc5ccc(Cl)cc5F)n4)CC3)nc3cc(-c4nnc(C(F)(F)F)[nH]4)ncc32)CC1 [Compound 179, 1-[(2-{[4-({6-[(4-chloro-2-fluorophenyl)methyl]pyridin-2-yl}oxy)piperidin-1-yl]methyl}-6-[5-(trifluoromethyl)-4H-1,2,4-triazol-3-yl]-3H-imidazo[4,5-c]pyridin-3-yl)methyl]cyclopropane-1-carbonitrile] |
| 1.1 | Cc1ccc(C(=O)Nc2ccc3c(c2)nc(CN2CCC(Oc4ccnc(Cc5ccc(Cl)cc5)n4)CC2)n3C[C@@H]2CCO2)cn1 [Compound 104a, N-(2-{[4-({2-[(4-chlorophenyl)methyl]pyrimidin-4-yl}oxy)piperidin-1-yl]methyl}-1-{[(2S)-oxetan-2-yl]methyl}-1H-1,3-benzodiazol-5-yl)-6-methylpyridine-3-carboxamide] |
| 13 | FC1(F)CCN(Cc2cccc(OC3CCN(Cc4nc5cc(-c6nnc(C(F)(F)F)[nH]6)ncc5n4C[C@@H]4CCO4)CC3)n2)CC1 [Compound 184a, 2-[(4,4-difluoropiperidin-1-yl)methyl]-6-({1-[(3-{[(2S)-oxetan-2-yl]methyl}-6-[5-(trifluoromethyl)-4H-1,2,4-triazol-3-yl]-3H-imidazo[4,5-c]pyridin-2-yl)methyl]piperidin-4-yl}oxy)pyridine] |
| 0.18 | Clc1ccc(Cc2nccc(OC3CCN(Cc4nc5cc(-c6nnn[nH]6)ccc5n4Cc4cn[nH]c4)CC3)n2)cc1 [Compound 153, 2-{[4-({2-[(4-chlorophenyl)methyl]pyrimidin-4-yl}oxy)piperidin-1-yl]methyl}-1-[(1H-pyrazol-4-yl)methyl]-5-(1H-1,2,3,4-tetrazol-5-yl)-1H-1,3-benzodiazole] |
| 0.03 | Fc1cc(Cl)ccc1Cc1nccc(OC2CCN(Cc3nc4cc(-c5nnc(C(F)(F)F)[nH]5)ncc4n3C[C@@H]3CCO3)CC2)n1 [Compound 138a, 2-[(4-chloro-2-fluorophenyl)methyl]-4-({1-[(3-{[(2S)-oxetan-2-yl]methyl}-6-[5-(trifluoromethyl)-4H-1,2,4-triazol-3-yl]-3H-imidazo[4,5-c]pyridin-2-yl)methyl]piperidin-4-yl}oxy)pyrimidine] |
| 0.13 | Fc1cc(Cl)ccc1Cc1cccc(OC2CCN(Cc3nc4cc(-c5nnc(C(F)(F)F)[nH]5)cnc4n3C[C@@H]3CCO3)CC2)n1 [Compound 141a, 2-[(4-chloro-2-fluorophenyl)methyl]-6-({1-[(3-{[(2S)-oxetan-2-yl]methyl}-6-[5-(trifluoromethyl)-4H-1,2,4-triazol-3-yl]-3H-imidazo[4,5-b]pyridin-2-yl)methyl]piperidin-4-yl}oxy)pyridine] |

Source: patent publication US20240083886A1, “HETEROCYCLIC GLP-1 AGONISTS” (Gasherbrum Bio, Inc., priority 2020, published 2024)
